Reference: publication PMC6152329, “Antitumoural Sulphur and Selenium Heteroaryl Compounds: Thermal Characterization and Stability Evaluation” (Molecules : A Journal of Synthetic Chemistry and Natural …, 2017)

Experiments:
[1] = Thermogravimetric (TG) analysis of thermal stability; type: physicochemical; conditions: for TG To (Tonset of thermal degradation): nitrogen, 50 to 350 °C; for TG decomposition or desolvation processes in the temperature range studied: range 100–135 °C for VA4J, 94–108 °C for VA6E
Method: The thermogravimetric (TG) studies were carried out with a Perkin–Elmer TGA-7 (Perkin Elmer, Inc. Watham, MA, USA) which was calibrated with alumel and nickel at 10 °C·min^−1. The calibration of the oven temperatures was carried out automatically and mass calibrated with a certified sample of 10 mg (ASTM E617, provided by Perkin Elmer, Inc. Watham, MA, USA). TG analyses were performed under a nitrogen atmosphere with a gas flow of 40 mL·min^−1, from 50 to 350 °C, at a heating rate of 10 °C·min^−1, using a sample of approximately 3 mg, in order to obtain the values of the Tonset and Tmax of the degradation process as well as any associated mass loss.

[2] = tested on: 1205Lu (melanoma), A549 (lung), DU145 (prostate), HCT116 (colon), PANC-1 (pancreas) and BxPC3 (pancreas); design: method as in PMID 26922233; conditions: all six cell lines, even at short time points; MTT conditions slightly different; cited from earlier work
[3] = DSC successive melting-recrystallization cycles, polymorphic behaviour; type: physicochemical; design: key: I: Compounds that show a polymorphic phase transition into an amorphous or mainly amorphous solid form after a first melting–cooling scan; II: Compounds that change into a new polymorphic form with a different Tonset of fusion than the one observed at the first melting–recrystallization scan after cooling; III: These compounds show a fusion process without modifications in the thermal behaviour after an initial fusion–recrystallization cycle; IV: Compounds that show recrystallization or other types of phase transition of the original form into another crystalline one in the first heat scan; V: Compounds without fusion processes at the range of temperatures studied; *: fusion with decomposition; conditions: 10 °C/min
Method: To establish general polymorphic behaviours, samples of all the compounds synthetized (Figure 1) were exposed to successive cycles of melting–recrystallization using DSC. Calorimetric analyses were performed before the beginning of the degradation process (Table 6). […] This behaviour was shown by several compounds: VA1C, VA2E, VA8E, series H, VA6I, VA8J, VA6M and VA8M. DSC and PXRD results of compound VA7H are shown as supplementary material (Figures S1 and S2 and Table S1). • Behaviour II—Compounds that change into a new polymorphic form with a different Tonset of fusion than the one observed at the first melting–recrystallization scan after cooling. These compounds are VA7E and VA8O. DSC and PXRD results of compound VA7E are shown as supplementary material (Figures S3 and S4, Table S2). • Behaviour III—These compounds show a fusion process without modifications in the thermal behaviour after an initial fusion–recrystallization cycle. Consequently, there is no evidence of polymorphic behaviour. The compounds VA2C, VA2M, VA4J and VA5O belong to this group. DSC and PXRD results of compound VA2M are shown as supplementary material (Figures S5 and S6, Table S3). • Behaviour IV—Compounds that show recrystallization or other types of phase transition of the original form into another crystalline one in the first heat scan. In the successive cycles of melting–recrystallization, the new form may not alter its crystalline form or transit to another polymorphic form. Compounds VA6E, VA7J and VA7M show this behaviour. • Behaviour V—Compounds without fusion processes at the range of temperatures studied.
For calorimetric studies a Perkin–Elmer DSC diamond calibrated with indium and zinc (provided by Perkin–Elmer (Perkin Elmer, Inc. Watham, MA, USA) and fabricated according to guideline ISO35) at 10 °C·min^−1 and nitrogen flow of 20 mL·min^−1 was employed. The gas connected to the equipment was nitrogen with a purity of 99.999%. Calorimetric analyses were carried out in aluminium capsules for volatilities of 10 μL, at a heating rate of 10 °C·min^−1, using a sample of approximately 3 mg, in order to establish the Tonset, Tmax and the enthalpy of fusion ∆Hf.
The calorimetric analyses started with the study of the thermal behaviour of the compounds before the process of degradation in order to evidence the possible existence of polymorphism. For this preliminary study, samples of all the compounds were exposed to successive cycles of heating–cooling. All samples were heated from 50 °C to temperatures 15–20 °C below Tonset of the degradation process, in order to ensure that compounds were not degraded (Table 6). After melting the samples, they were left at room temperature for enough time to allow the compounds to recrystallize before the successive thermal process. Additional cycles of heating–cooling were performed if polymorphism was detected.

[4] = Stability after stress conditions by HPLC/UV-DAD; type: physicochemical; conditions: 0, 4 and 24 h; for Stability to oxidation: H2O2 3%; for Stability to acid hydrolysis: HCl 1 M; for Stability to basic (alkaline) hydrolysis: NaOH 0.1 M
Method: The stability of compounds VA4J (without polymorphic behaviour) and VA6E and VA7J (with polymorphic behaviour) was investigated after the application of diverse stress conditions: acid hydrolysis (HCl 1 M), basic hydrolysis (NaOH 0.1 M) and oxidation (H2O2 3%). Chromatographic studies using HPLC/UV-DAD were performed with this purpose.
Chromatographic studies were performed using an HPLC/UV-DAD (HP 1200, Agilent Technologies. Santa Clara, CA, USA) with a C18 column (Gemini-NX 150 × 4.6 mm, 5 µm) from Phenomenex (Phenomenex. Torrance, CA, USA). The mobile phase was a mixture of acetonitrile/water (80:20; v/v) for compound VA4J, (50:50; v/v) for VA6E and (80:20, 0.1% formic acid; v/v) for compound VA7J. The injection volume was 50 µL and the flow rate was 1 mL/min. Chromatography was performed at 35 °C. UV-DAD detection was established at λ = 254 nm.
For stability evaluation in stress conditions, working solutions of 47.6 µg/mL were prepared by diluting 20 µL of each standard solution in 200 µL of acetonitrile and 200 µL of (a) 1 M HCl, (b) 0.1 M NaOH and (c) 3% H2O2. Data were recorded at zero time and after 4 and 24 h of exposure.

[5] = tested on: breast adenocarcinoma (MCF-7) cell line; design: method as in PMID 27487570; conditions: same methodology; cited from earlier work
[6] = tested on: breast adenocarcinoma (MCF-7) cell line; test: MTT cell viability assay, 72 h, MCF-7; type: cell-based, human; conditions: for SI (selectivity index): GI50(184B5)/GI50(MCF-7); for TGI / LD50 / GI50: MCF-7, 72 h, MTT; for TGI: concentration that completely inhibits cell growth; for LD50: concentration that kills 50% of cells; for GI50: concentration that inhibits 50% cell growth
Method: (§1) The novel synthetic compounds VA2J, VA4J, VA6G, VA6H, VA6I and VA6J were tested in breast adenocarcinoma (MCF-7) and non-malignant mammary-gland-derived (184B5) cell lines to be able to establish their potency and selectivity. The reference drug used was methylseleninic acid (MSA) as a Se-containing structure with promising in vitro and in vivo results against different tumour types. Results are expressed as the concentration that inhibits 50% cell growth (GI50), the concentration that inhibits completely cell growth (TGI) and the concentration that kills 50% of cells (LD50). The selectivity index (SI) is calculated as GI50(184B5)/GI50(MCF-7).
(§2) Cell lines were purchased from the American Type Culture Collection (ATCC, Barcelona, Spain). MCF7 cell lines were grown in Roswell Park Memorial Institute (RPMI) medium (Gibco, Madrid, Spain) supplemented with 10% fetal bovine serum (FBS; Gibco), 100 units/mL penicillin and […] (Gibco, Madrid, Spain). 184B5 cells were grown in DMEM/F12 medium supplemented with 5% FBS, 1x ITS (Lonza, Barcelona, Spain), 100 nM hydrocortisone (Sigma Aldrich, Madrid, Spain), 2 mM sodium pyruvate (Lonza), 20 ng/mL EGF (Sigma Aldrich, Madrid, Spain), 0.3 nM trans-retinoic acid (Sigma-Aldrich) 100 units/mL penicillin and […]. Cells were maintained at 37 °C and 5% CO2.
(§3) Compounds were dissolved in DMSO at a concentration of 0.01 M. Serial dilutions were prepared with non-supplemented medium. The cytotoxic effect of each compound was tested at eight different concentrations ranging between 0.01 and 100 µM.
(§4) A total of 10^4 cells/well in 96 well-plates were treated with either DMSO or increasing concentrations of the corresponding compound for 72 h and cell viability was determined using the MTT (3-(4,5-dimethylthiazol-2-yl)-2,5-diphenyltetrazolium bromide) (Sigma Aldrich, Madrid, Spain) assay. Briefly, cells were incubated with 50 µL of MTT (2 mg/mL stock) for 4 h. The medium was then removed by aspiration and the formazan crystals were dissolved in 150 µL of DMSO. The absorbance was measured at 550 nm in a microplate reader (Sunrise, Tecan, Männedorf, Switzerland). […] Data were obtained from at least three independent experiments performed in quadruplicate.

[7] = tested on: non-malignant mammary-gland-derived (184B5) cell line; test: MTT cell viability assay, 72 h, 184B5; type: cell-based; conditions: 184B5, 72 h; for GI50: Homo sapiens
Method: as §1, §2, §3, §4

SMILES	TG debromhidration process temperature ([1]; 10 °C/min)	IC50 [2]	DSC Behaviour (polymorphic/calorimetric behaviour) [3]	Stability to oxidation [4]	Stability to acid hydrolysis [4]	Stability to basic (alkaline) hydrolysis [4]	TG To (Tonset of thermal degradation) ([1]; 10 °C/min)	TG decomposition or desolvation processes in the temperature range studied [1]	Selectivity relative to MSA [5]	SI (selectivity index) [6]	TGI [6]	LD50 [6]	SI relative to MSA ([6]; SI of compound compared with SI of MSA)	LD50 [7]	TGI [7]	GI50 [7]	GI50 ([6]; Homo sapiens, MCF7, 72 h)	GI50 [6]
N=C(N)[Se]Cc1nc2ccccc2nc1C[Se]C(=N)N [VA7J]	173 °C	< 10 µM	IV	totally degraded	stable	only a minor degradation	–	–	–	–	–	–	–	–	–	–	–	–
N#CSCc1cc2c(cc1Br)OCO2 [VA6E]	–	–	IV	degradation product peaks were also detected	degradation product peaks were also detected	degraded almost completely	184.1 °C	can be excluded	fourteen times more selective than MSA	–	–	–	–	–	–	–	–	–
CSc1nc2ccccc2nc1SC [VA4J, 2,3-Bis(methylsulfanyl)quinoxaline]	–	–	III	stable	stable	stable	197.42 °C	can be excluded	–	51.25	>100 µM	>100 µM	over 50 times	>100 µM	>100 µM	52.5 µM	–	–
N#CSCc1nc2ccccc2nc1CSC#N [VA6J, Quinoxalin-2,3-diyldimethanediyl Bisthiocyanate]	–	–	*	–	–	–	165.0 °C	–	–	2.15	50.55 µM	83.93 µM	–	94.62 µM	69.80 µM	39.8 µM	18.5 µM	–
Cl.N=C(N)Sc1nc2ccccc2nc1S [VA2J, 3-Mercaptoquinoxalin-2-yl Carbamimidothioate Hydrochloride]	–	–	*	–	–	–	199.2 °C	–	–	5.66	13.90 µM	44.02 µM	–	20.48 µM	15.97 µM	12.5 µM	–	–
N#CSCc1ccc2ccccc2n1 [VA6H, Quinolin-2-ylmethyl Thiocyanate]	–	–	I	–	–	–	139.1 °C	–	–	3.25	14.83 µM	24.18 µM	–	>100 µM	75.84 µM	27.8 µM	< 10 µM	8.53 µM
